Measurements taken from patent publication US5716986A, “Oxaindene derivatives and process for the preparation thereof” (priority 1995, dated 1998).

Key:
[1] = test system: Ear oedema induced by arachidonic acid in mice; test: Ear oedema induced by arachidonic acid in mice; assay type: in vivo, NMRI strain); conditions: female NMRI mice, topical, 30 minutes before arachidonic acid (3 mg), measured 60 minutes later
Procedure: 3. Ear oedema induced by arachidonic acid in mice
Inflammation of ear was induced by arachidonic acid using a modified version of the procedure described by Young et al. [Young, J. M., Spires, D. A., Bedord, C. J., Wagner, B., Ballaron, S. J., De Young, L. M.: The mouse ear inflammatory response to topical arachidonic acid, J. Invest. Dermatol. 82, 67-371 (1984)]. The experiments were carried out in female mice from the NMRI strain weighing 25 to 30 g (8 animals/groups). Drugs were applied topically in acetone or ethanol by an automatic pipette in 10 μl volumes to both the inner and outer surfaces of the ear. 30 minutes after drug or vehicle administration both sides of the left ear were brushed with 3 mg of arachidonic acid in 20 μl of acetone and both sides of the right ear were treated with 20 μl of acetone only. 60 minutes later the animals were killed by aether, then a disk of 7 mm diameter was cut off both ears. The mass of each disk was measured by an analytical scale and the mean of the difference of the left and right ears was calculated for every group. ID50 values were determined by plotting the log-dose versus percentage response as compared to vehicle-treated animals.

PAF lethality in mice = test: PAF induced anaphylactic shock test in mice (PAF lethality); assay type: in vivo; conditions: Mus musculus, ip, 1 h; male NMRI mice, intraperitoneal, 30 minutes before intravenous PAF 100 μg/kg, mortality at one hour; read-out: PAF lethality in mice ID50
Procedure: 4. PAF induced anaphylactic shock test in mice
A modification of the method of Young et al. [Young, J. M., Maloney, P. J., Jubb, S. N. and Clark, J. S.: Pharmacological investigation of the mechanism of platelet-activating factor mortality in the mouse, Prostaglandins 30, 545-551 (1985)] was used. The experiments were carried out in male NMRI mice weighing 20-25 g (10 animals/group). The test compounds were suspended in 0.4% methyl cellulose and administered intraperitoneally in a volume of 10 ml/kg. The mice of the control group received only vehicle. 30 minutes later the animals received intravenous PAF in a dose of 100 μg/kg (5 ml/kg). Mortality was determined one hour after PAF administration. Every experiment was repeated three times (n=30). The ratio of mortality of the treated animals was compared to that of the control mice. ID50 values were calculated by linear regression analysis.

[2] = biological target: T1, 5-lipoxygenase (5-LO) enzyme (Homo sapiens, UniProt P09917); test: Measurement of 5-LO enzyme activity in cell free system prepared from human leukocytes (direct); assay type: biochemical; conditions: human polymorphonuclear leukocytes, 0.02 mM arachidonic acid, pH 7.5, 37° C., 5 minutes, read-out: 5-lipoxygenase enzyme inhibition, direct, IC50
T1 construct: the enzyme in the cytosol was partially purified by ammonium sulphate fractionation; endogenous in cells; host or cells: human polymorphonuclear leukocytes (sonicated, cytosol, ammonium sulphate fraction)
T1 sequence (P09917 1-674): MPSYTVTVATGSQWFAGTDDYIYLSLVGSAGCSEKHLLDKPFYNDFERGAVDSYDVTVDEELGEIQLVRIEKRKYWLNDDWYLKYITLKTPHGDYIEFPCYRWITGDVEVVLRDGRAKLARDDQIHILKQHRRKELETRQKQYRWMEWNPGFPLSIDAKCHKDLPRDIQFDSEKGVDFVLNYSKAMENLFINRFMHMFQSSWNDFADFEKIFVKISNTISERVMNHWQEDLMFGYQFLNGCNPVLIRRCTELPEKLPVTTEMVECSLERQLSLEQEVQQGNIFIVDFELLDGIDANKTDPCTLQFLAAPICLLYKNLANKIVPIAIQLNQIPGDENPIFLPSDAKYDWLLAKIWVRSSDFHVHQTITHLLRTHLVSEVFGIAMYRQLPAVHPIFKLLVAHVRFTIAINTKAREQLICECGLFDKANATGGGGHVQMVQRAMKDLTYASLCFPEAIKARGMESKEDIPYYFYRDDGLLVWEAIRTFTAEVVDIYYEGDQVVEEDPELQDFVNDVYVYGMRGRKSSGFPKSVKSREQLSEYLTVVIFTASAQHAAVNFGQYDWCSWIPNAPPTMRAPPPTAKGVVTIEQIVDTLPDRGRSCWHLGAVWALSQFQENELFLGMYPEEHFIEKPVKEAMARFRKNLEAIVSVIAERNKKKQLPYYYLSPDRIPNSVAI
Procedure: 1. Measurement of 5-LO enzyme activity in cell free system prepared from human leukocytes
The enzyme activity was measured according to the modified method of Ochi et al. [K. Ochi, T. Yoshimoto, S. Yamamoto, K. Taniguchi, T. Miyamoto: Arachidonate 5-lipoxygenase of guinea pig peritoneal polymorphonuclear leukocytes, J. Biol. Chem. 258, 5754-5758 (1983)]. The principle of the method is as follows: in in vitro systems, during the reaction catalysed by 5-LO 5-hydroxyperoxy-6,8,11,14-eicosatetraenoic acid (5-HPETE) is formed from arachidonic acid, then it is transformed to 5-hydroxy-6,8,11,14-eicosatetraenoic acid (5-HETE). Both 5-HPETE and 5-HETE have absorption maximum at 236 nm, therefore it is possible to determine the activity of 5-LO enzyme by measuring the change of absorption at 236 nm. 5-LO was prepared from human polymorphonuclear leukocytes by a simple purification procedure. The cells were washed and lysed by a sonic disintegrator. The lysate was centrifuged and the enzyme in the cytosol was partially purified by ammonium sulphate fractionation (the enzyme precipitates at 50% saturation). The reaction mixture (50 mM tris-HCl pH=7.5, 2mM CaCl2, 0.1 mM ATP, 0.02 mM arachidonic acid) was incubated at 37° C. for 5 minutes. The reaction was started with the addition of arachidonic acid and stopped by the addition of 10 mM of citric acid. The thus-obtained 5-HPETE and 5-HETE were extracted with a 6:4 mixture of diethyl ether and hexane and the absorption of the organic phase was measured by spectrophotometry at […].

[3] = biological target: T1, 5-lipoxygenase (5-LO) enzyme; test: Determination of 5-LO enzyme activity of human leukocytes by measuring their leukotriene B4 production (whole cell); assay type: cell-based; conditions: human PMN leukocytes, LTB4 release, ionophore A-23187 0.001 mM, pH 7.2, 37° C., 15 minutes, RIA; read-out: 5-lipoxygenase enzyme inhibition, in whole cell, IC50
Excerpt: 2. Determination of 5-LO enzyme activity of human leukocytes by measuring their leukotriene B4 production
The method of Mia et al. was applied [H. Mita, Y. Yui and T. Shida: Effect of AA-861, a 5-lipoxygenase inhibitor on leukotriene synthesis in human polymorphonuclear leukocytes and on cyclooxygenase and 12-lipoxygenase activities in human platelets, Allergy 41, 493-498, (1986)]. The principle of the experiment is as follows: the calcium ionophore A-23187 induces the synthesis and the release of LTB4 by human polymorphonuclear leukocytes. The amount of LTB4 released into the incubation medium reflects the 5-LO enzyme activity of the intact cells. The incubation medium was Hank's balanced medium (HBBS) supplemented with 17 mM of Tris-HCl (pH 7.2), 1.22 mM of CaCl2, 1 mM of MgCl2, 0.001 mM of A-23187 and 10^4 PMN leukocyte per ml reaction mixture. The reaction was started with the addition of ionophore then incubated at 37° C. for 15 minutes. The reaction was stopped by adding 5 mM of EDTA and by chilling the samples in an ice bath. The samples were centrifuged and the amount of LTB4 in the supernatant was determined by radioiimmunoassay (RIA).

SMILES	Arachidonic acid ear oedeme in mice ID50 [1]	ED50 (PAF lethality in mice)	IC50 [2]	IC50 [3]
CC1=C(C)C(=O)C(CCCCC#CCCCC#CCO)=C(C)C1=O [AA-861, 2-(12-hydroxy-5,10-dodecadiinyl)-3,5,6-trimethyl-p-benzoquinone, reference compound]	0.13 mg/ear	58.9 mg/kg	4100 nM	1100 nM
Cc1c(O)cc2c(c1C)O[C@H]1CCC[C@@H]21 (relative stereo) [Example 4, cis-6,7-Dimethyl-2,3,3a,8a-tetrahydro-1H-8-oxacyclopenta[a]indene-5-ol]		65.2 mg/kg	1200 nM	300 nM
COc1cc2c(cc1O)[C@@H]1CCC[C@@H]1O2 (relative stereo) [Example 6, cis-6-Methoxy-2,3,3a,8a-tetrahydro-1H-8-oxacyclopenta[a]indene-5-ol]	0.23 mg/ear	100 mg/kg	1200 nM	
Cc1c(O)cc2c(c1C)O[C@H]1C=CC[C@@H]21 (relative stereo) [Example 3, cis-6,7-Dimethyl-3a,8a-dihydro-3H-8-oxacyclopenta[a]indene-5-ol]			5500 nM	500 nM
CCOc1cc2c(cc1O)[C@@H]1CC=C[C@@H]1O2 (relative stereo) [Example 7, cis-6-Ethoxy-3a,8a-dihydro-3H-8-oxacyclopenta[a]indene-5-ol]	0.11 mg/ear	27.3 mg/kg	1700 nM	300 nM
O=C1CCN(c2ccccc2)N1 [Phenidone, 1-phenyl-3-pyrazolidinone, reference compound]	0.18 mg/ear	14.2 mg/kg		
Cc1c(C)c2c(c(C)c1O)[C@@H]1CC=C[C@@H]1O2 (relative stereo) [Example 1, cis-4,6,7-Trimethyl-3a,8a-dihydro-3H-8-oxacyclopenta[a]indene-5-ol]		51.7 mg/kg	74 nM	680 nM
Cc1c(C)c2c(c(C)c1O)[C@H]1CCC=C[C@H]1O2 (relative stereo) [Example 23, cis-1,3,4-Trimethyl-5a,8,9,9a-tetrahydrodibenzofurane-2-ol]		23.2 mg/kg	540 nM	140 nM
COc1cc2c(cc1O)[C@@H]1CC=C[C@@H]1O2 (relative stereo) [Example 5, cis-6-Methoxy-3a,8a-dihydro-3H-8-oxacyclopenta[a]indene-5-ol]	0.18 mg/ear		2700 nM	300 nM
CCOc1cc2c(cc1O)[C@@H]1CCC[C@@H]1O2 (relative stereo) [Example 8, cis-6-Ethoxy-2,3,3a,8a-tetrahydro-1H-8-oxa-cyclopenta[a]indene-5-ol]		45 mg/kg	490 nM	
CC(Cc1ccc(O)c(O)c1)C(C)Cc1ccc(O)c(O)c1 (stereo not drawn) [NDGA, 1,4-bis(3,4-dihydroxyphenyl)-2,3-dimethylbutane, reference compound]	> 1.0 mg/ear	29.2 mg/kg		
Cc1c(C)c2c(c(C)c1O)[C@@H]1CCC[C@@H]1O2 (relative stereo) [Example 2, cis-4,6,7-Trimethyl-2,3,3 a,8a-tetrahydro-1H-8-oxacyclopenta[a]indene-5-ol]	0.18 mg/ear	16.2 mg/kg	390 nM	50 nM
Cc1c(C)c2c(c(C)c1O)C1CCCCCC1O2 (stereo not drawn) [Example 10, 1,2,4-Trimethyl-4b,6,7,8,9,9a-hexahydro-5H-10-oxabenzo[a]azulene-3-ol]	0.16 mg/ear	22.5 mg/kg	99 nM	70 nM
